In patent publication US10316020B2, “Indane derivatives and the use thereof as soluble guanylate cyclase activators” (NOVARTIS AG, priority 2015, dated 2019):
Where two headings read alike, the source gives them in different places.

Key:
[1] = Pharmacokinetic clearance in intravenously dosed rats; format: in vivo; conditions: male, Sprague-Dawley, rat, whole blood, iv, 0.5 mg/kg
Procedure: Sprague-Daley rats were administered sGC activators intravenously to assess the systemic clearance rates of the compounds from blood by non-compartmental analysis. Compounds with high clearance rates may be less prone to exert unwanted systemic (non-local) pharmocoligcal effects, which may be a benefical property for a compound intended to be dosed via topical ocular administration with the aim of exerting a pharmacological reponse locally in the eye.
In order to assess the pharmacokinetic parameters, male Sprague-Dawley rats were given 1 mL/Kg of the dosing solution (delineated in the table below) containing a test article (0.5 mg/kg) per kg of body weight via slow intravenous injection into an indwelling jugular vein catheter in a discrete PK study. Alternatively, male Sprague-Dawley rats were given 1 mL/Kg of the dosing solution containing three test articles (0.5 mg/kg each, 1.5 mg/kg total) per kg of body weight via slow intravenous injection into an indwelling jugular vein catheter in a cassette PK study. Diet and water was provided ad libitum without exception. At specified time following a single intravenous bolus injection, approximately 100 μL of whole blood was collected from indwelling catheter in jugular vein. The blood was stored frozen at −20° C. before an LC-MS/MS method was used to quantitate drug levels in the blood. All pharmacokinetic (PK) parameters were derived from concentration-time data by non-compartmental analyses using WinNonlin Phoenix version 6.4 (Certara, St. Louis, Mo.). For the intravenous dose, the concentration of unchanged compound at time 0 was calculated based on a log-linear regression of first two data points to back-extrapolate C(0). The area under the concentration-time curve was calculated using the linear trapezoidal rule.
Data in Table 2 collected using the assay of Biological Example 2 compares compounds from the present invention to other sGC activators previously disclosed PCT/IB2015/055006 filed Jul.

[2] = biological target: T1, soluble guanylate cyclase (GUCYA3/GUCYB3) overexpressed in CHO cells (Homo sapiens, UniProt Q02108+Q02153); assay: CHO cellular assay (cGMP production, HTRF); format: cell-based
T1 construct: expressed in transfected cells
T1 sequence (Q02108 1-690 partner): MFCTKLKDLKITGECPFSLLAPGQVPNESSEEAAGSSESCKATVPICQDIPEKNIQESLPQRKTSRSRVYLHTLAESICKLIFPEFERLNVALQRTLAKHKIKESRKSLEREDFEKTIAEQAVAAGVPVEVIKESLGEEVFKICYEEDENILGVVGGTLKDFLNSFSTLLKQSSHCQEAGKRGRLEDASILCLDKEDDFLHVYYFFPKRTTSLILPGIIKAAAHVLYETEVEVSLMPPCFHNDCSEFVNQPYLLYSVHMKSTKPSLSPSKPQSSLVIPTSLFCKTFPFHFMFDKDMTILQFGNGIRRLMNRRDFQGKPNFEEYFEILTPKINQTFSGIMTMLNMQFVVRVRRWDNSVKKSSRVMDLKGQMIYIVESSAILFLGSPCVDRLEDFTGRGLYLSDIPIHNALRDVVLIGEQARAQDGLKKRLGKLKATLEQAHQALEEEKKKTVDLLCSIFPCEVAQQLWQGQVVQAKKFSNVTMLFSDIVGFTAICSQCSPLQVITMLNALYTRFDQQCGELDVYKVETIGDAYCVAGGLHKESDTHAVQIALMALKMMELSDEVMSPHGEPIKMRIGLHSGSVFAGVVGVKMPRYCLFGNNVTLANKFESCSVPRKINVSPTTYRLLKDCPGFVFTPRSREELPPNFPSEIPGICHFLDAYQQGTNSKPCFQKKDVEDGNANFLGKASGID
T1 sequence (Q02153 1-619): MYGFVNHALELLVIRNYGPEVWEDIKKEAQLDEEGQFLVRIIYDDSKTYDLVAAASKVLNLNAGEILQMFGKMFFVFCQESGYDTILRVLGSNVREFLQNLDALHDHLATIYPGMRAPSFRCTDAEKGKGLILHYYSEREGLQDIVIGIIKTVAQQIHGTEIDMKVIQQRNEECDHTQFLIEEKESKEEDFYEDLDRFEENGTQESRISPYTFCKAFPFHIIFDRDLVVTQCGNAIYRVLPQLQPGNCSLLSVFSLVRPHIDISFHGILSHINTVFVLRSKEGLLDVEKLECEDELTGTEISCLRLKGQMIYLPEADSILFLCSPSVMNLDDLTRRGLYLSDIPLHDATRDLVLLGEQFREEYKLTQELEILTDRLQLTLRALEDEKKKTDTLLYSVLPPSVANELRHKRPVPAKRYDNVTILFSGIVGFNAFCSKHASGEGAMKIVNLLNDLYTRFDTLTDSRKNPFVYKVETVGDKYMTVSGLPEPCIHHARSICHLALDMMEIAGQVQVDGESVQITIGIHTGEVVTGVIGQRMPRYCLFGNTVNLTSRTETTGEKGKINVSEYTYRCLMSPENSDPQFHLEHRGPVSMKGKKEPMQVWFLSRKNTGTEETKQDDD
Text: Chinese hamster ovary (CHO) cells overexpressing soluble guanylate cyclase were generated to test the effect of sGC activators in a cellular context. Human cDNAs for GUCYA3 (RefSeq: NM_000856.3) and GUCYB3 (RefSeq: NM_000857.1) were amplified by PCR from a HUVEC (Human Umbilical Vein Endothelial Cells) cDNA library and cloned into mammalian expression vectors. CHO K1 cells (ATCC CCL-61) were transfected using Lipofectamine 2000 following manufacturer's instructions and stably expressing clones were identified by antibiotic selection. CHO GUCY clone 8E10 was used for subsequent experiments.
Cells were seeded at a density of 3000 cells/well in white 384-well proxyplates (Perkin Elmer) and incubated overnight, then the medium was removed and cells were washed with assay buffer (HBSS, 0.1% BSA, 1 mM IBMX, 20 uM ODQ). sGC activators were serially diluted in DMSO, then diluted in assay buffer prior to adding to cells (10 ul/well, final DMSO concentration 0.5%). Cells were incubated with compounds for 1 h at room temperature, then assayed for cGMP production using Cisbio cGMP HTRF kit (62GM2PEC) according to manufacturer's instructions.
The EC50s are calculated based on the amount of cGMP interpolated from the standard curve, using a 4-parameter sigmoidal dose-response.
Compounds of invention are active on sGC activation. Data in Table 1 collected using the assay of Biological Example 1.

[3] = CHO cellular assay, as repeated in Table 2, read-out: EC50 from biological Example #1
[4] = i.v. 0.5 mg/kg each, three test articles, Cassette - E (10% propylene glycol, 10% Solutol HS15, PBS)
[5] = i.v. 0.5 mg/kg, Discrete - D (10% propylene glycol, 10% Solutol HS15, PBS)
[6] = CHO GUCY clone 8E10, assay buffer with 1 mM IBMX, 20 uM ODQ, 1 h at room temperature, cGMP HTRF, quantification limit 0.0005 μM, read-out: Mean EC50

## Cc1cc(C2CCN(C(=O)C3CC3)CC2)ccc1NC1CCc2cccc(-c3cccc(-n4ncc(C(=O)O)c4C)c3)c21 (single isomer, unassigned; (+)) [(+)-1-(3-(3-((4-(1-(cyclopropanecarbonyl)piperidin-4-yl)-2-methylphenyl)amino)-2,3-dihydro-1H-inden-4-yl)phenyl)-5-methyl-1H-pyrazole-4-carboxylic acid, reference compound]
[1]; i.v. 0.5 mg/kg each, three test articles, Cassette - F (20% propylene glycol, 10% Solutol HS15, PBS)
  clearance: 24.9 mL/min/kg
[2]; [3]
  EC50: < 0.5 nM

## Cc1cc(C2CCN(C(=O)C3CC3)CC2)ccc1CC1CCc2cccc(-c3cccc(-n4ncc(C(=O)O)c4C)n3)c21 (single isomer, unassigned; (+)) [(+)-1-(6-(3-(4-(1-(cyclopropanecarbonyl)piperidin-4-yl)-2-methylbenzyl)-2,3-dihydro-1H-inden-4-yl)pyridin-2-yl)-5-methyl-1H-pyrazole-4-carboxylic acid]
[1]; [4]
  clearance: 97.2 mL/min/kg
[1]; [5]
  clearance: 25.6 mL/min/kg
[2]; [3]
  EC50: < 0.5 nM

## CCc1cc(OC2CCc3cccc(-c4cccc(-n5ncc(C(=O)O)c5CC)n4)c32)ccc1C1CCN(C(=O)C2CC2)CC1 (single isomer, unassigned; (+)) [(+)-1-(6-(3-(4-(1-(cyclopropanecarbonyl)piperidin-4-yl)-3-ethylphenoxy)-2,3-dihydro-1H-inden-4-yl)pyridin-2-yl)-5-ethyl-1H-pyrazole-4-carboxylic acid]
[1]; [4]
  clearance: 6.6 mL/min/kg
[1]; i.v. 0.5 mg/kg, Discrete - G (20% propylene glycol, 50% of 20% Solutol HS15, water)
  clearance: 14 mL/min/kg
[2]; [3]
  EC50: < 0.5 nM

## CCc1cc(NC2CCc3cccc(-c4cccc(-n5ncc(C(=O)O)c5CC)n4)c32)ccc1C1=CCN(C(=O)C2CC2)CC1 (single isomer, unassigned; (+)) [(+)-1-(6-(3-((4-(1-(cyclopropanecarbonyl)-1,2,3,6-tetrahydropyridin-4-yl)-3-ethylphenyl)amino)-2,3-dihydro-1H-inden-4-yl)pyridin-2-yl)-5-ethyl-1H-pyrazole-4-carboxylic acid, reference compound]
[1]; [5]
  clearance: 38 mL/min/kg
[2]; [3]
  EC50: < 0.5 nM

## CCc1cc(NC2CCc3cccc(-c4cccc(-n5ncc(C(=O)O)c5OC)c4)c32)ccc1C1CCN(C(=O)[C@H](C)O)CC1 (single isomer, unassigned; (+)) [Example 4A]
[1]; i.v. 0.5 mg/kg, Discrete - C (20% PEG 300, 10% Solutol HS15, PBS)
  clearance: > 100 mL/min/kg
[2]; [6]
  EC50: < 0.5 nM
[2]; [3]
  EC50: < 0.5 nM

## CCc1cc(NC2CCc3cccc(-c4cccc(-n5ncc(C(=O)O)c5N)n4)c32)ccc1C1CCN(C(=O)C2CC2)CC1 (single isomer, unassigned; (+)) [Example 18A, (+)-5-Amino-1-(6-(3-((4-(1-(cyclopropanecarbonyl)piperidin-4-yl)-3-ethylphenyl)amino)-2,3-dihydro-1H-inden-4-yl)pyridin-2-yl)-1H-pyrazole-4-carboxylic acid]
[1]; [5]
  clearance: 98 mL/min/kg
[2]; [6]
  EC50: 7 nM
[2]; [3]
  EC50: 7 nM

## Cc1cc(C2CCN(C(=O)[C@H](C)O)CC2)ccc1NC1CCc2cccc(-c3cccc(-n4ncc(C(=O)O)c4C)n3)c21 (single isomer, unassigned; (+)) [reference compound]
[1]; [4]
  clearance: 48.3 mL/min/kg
[2]; [3]
  EC50: < 0.5 nM

## CCc1cc(C[C@H]2CCc3cccc(-c4cccc(-n5ncc(C(=O)O)c5OC)c4)c32)ccc1C1CCN(C(=O)C2CC2)CC1 [Example 1A, (+)-(R)-1-(3-(3-(4-(1-(Cyclopropanecarbonyl)piperidin-4-yl)-3-ethylbenzyl)-2,3-dihydro-1H-inden-4-yl)phenyl)-5-methoxy-1H-pyrazole-4-carboxylic acid]
[1]; i.v. 0.5 mg/kg, Discrete - A (10% propylene glycol, 1 eq NaOH, 25% of 20% Solutol HS15, PBS)
  clearance: > 100 mL/min/kg
[2]; [6]
  EC50: < 0.6 nM
[2]; [3]
  EC50: < 0.6 nM

## CCc1cc(N[C@H]2CCc3cccc(-c4cccc(-n5ncc(C(=O)O)c5OC)c4)c32)ccc1C1CCN(C(=O)C2CC2)CC1 [Example 3A, (+)-(S)-1-(3-(3-((4-(1-(Cyclopropanecarbonyl)piperidin-4-yl)-3-ethylphenyl)amino)-2,3-dihydro-1H-inden-4-yl)phenyl)-5-methoxy-1H-pyrazole-4-carboxylic acid]
[1]; i.v. 0.5 mg/kg, Discrete - B (20% PEG 300, 1 eq NaOH, 10% Solutol HS15, PBS)
  clearance: > 100 mL/min/kg
[2]; [6]
  EC50: < 0.5 nM
[2]; [3]
  EC50: < 0.5 nM

## CCc1cc(O[C@H]2CCc3cccc(-c4cccc(-n5ncc(C(=O)O)c5OC)c4)c32)ccc1C1CCN(C(=O)C2CC2)CC1 [Example 5, (+)-(S)-1-(3-(3-(4-(1-(Cyclopropanecarbonyl)piperidin-4-yl)-3-ethylphenoxy)-2,3-dihydro-1H-inden-4-yl)phenyl)-5-methoxy-1H-pyrazole-4-carboxylic acid]
[1]; [5]
  clearance: 89 mL/min/kg
[2]; [6]
  EC50: < 0.5 nM
[2]; [3]
  EC50: < 0.5 nM

## CCc1cc(C[C@H]2CCc3cccc(-c4cccc(-n5ncc(C(=O)O)c5OC)n4)c32)ccc1C1CCN(C(=O)[C@H](C)O)CC1 [Example 24, (+)-(R)-1-(6-(3-(3-Ethyl-4-(1-((S)-2-hydroxypropanoyl)piperidin-4-yl)benzyl)-2,3-dihydro-1H-inden-4-yl)pyridin-2-yl)-5-methoxy-1H-pyrazole-4-carboxylic acid]
[2]; [6]
  EC50: < 0.5 nM
